Here are results for 1 compound from patent US8653004B2, “Actives-comprising polymer networks, processes for producing them, and their use” (priority 2007, dated 2014).

In brackets after ≈: the same amount, converted by molar mass.

This data set in a line: physchem. In kind it is physicochemical. Conditions: water.

As for `CCNc1nc(NC(C)(C)C)nc(SC)n1` [terbutryn, N2-tert-butyl-N4-ethyl-6-methylthio-1,3,5-triazine-2,4-diamine], the solubility (usually how much of the substance goes into solution per volume) was ~20 µg/mL (≈ 82.9 µM).
